Measured values taken from patent US9388162B2, “Substituted morphinans and the use thereof” (Purdue Pharma L.P., priority 2012, dated 2016).

What was measured:
[1] = target: recombinant human kappa opioid receptor (κ) (Homo sapiens (Human), UniProt P41145); experiment: κ-opioid receptor radioligand dose displacement binding assay ([3H]-U69,593); conditions: mean ± SEM, read-out: Binding Affinity Opioid Receptor Ki (nM) [mean ± SEM] κ
Protocol: (§1) Membranes from HEK-293 cells, CHO or U-2 OS cells expressing the recombinant human kappa opioid receptor (κ) were prepared by lysing cells in ice cold hypotonic buffer (2.5 mM MgCl2, 50 mM HEPES, pH 7.4) (10 mL/10 cm dish) followed by homogenization with a tissue grinder/Teflon pestle. Membranes were collected by centrifugation at 30,000×g for 15 min at 4° C. and pellets were resuspended in hypotonic buffer to a final concentration of 1-3 mg/mL. Protein concentrations were determined using the BioRad protein assay reagent with bovine serum albumen as standard. Aliquots of κ receptor membranes were stored at −80° C.
Radioligand dose displacement assays used 0.4 nM [^3H]-U69,593 (GE Healthcare, Piscataway, N.J.; 40 Ci/mmole) with 15 μg membrane protein (recombinant κ opioid receptor expressed in HEK 293 cells; in-house prep) in a final volume of 200 μl binding buffer (5% DMSO, 50 mM Trizma base, pH 7.4). Non-specific binding was determined in the presence of 10 μM unlabeled naloxone or U69,593. All reactions were performed in 96-well polypropylene plates for 1 hour at a temperature of about 25° C. Binding reactions were terminated by rapid filtration onto 96-well Unifilter GF/C filter plates (Perkin Elmer, Shelton, Conn.) presoaked in 0.5% polyethylenimine (Sigma). Harvesting was performed using a 96-well tissue harvester (Perkin Elmer, Shelton, Conn.) followed by five filtration washes with 200 μl ice-cold binding buffer. Filter plates were subsequently dried at 50° C. for 1-2 hours. Fifty μl/well scintillation cocktail (Perkin Elmer, Shelton, Conn.) was added and plates were counted in a Packard Top-Count for 1 min/well.
(§2) The following tables provide results on the efficacy of binding and activity response of exemplified Compounds of the Invention at the μ- and κ-opioid receptors. In TABLE 3, binding affinity of certain Compounds of the Invention to the μ- and κ-opioid receptors was determined as described above. In TABLE 4, activity response of certain Compounds of the Invention to the μ- and κ-opioid receptors was determined as described above for functional assays using HEK-293 cells. In TABLE 5, activity response of certain Compounds of the Invention to the μ- and κ-opioid receptors was determined as described above using U-2 OS cells.

κ opioid receptor [2] = target: T1, κ opioid receptor (Homo sapiens (Human), UniProt P41145); experiment: κ-opioid receptor [35S]GTPγS functional assay, HEK-293 cells; assay type: biochemical; conditions: κ GTP; for EC50: read-out: Activity Response κ EC50 (nM) [mean ± SEM]; for Emax: relative to U69,593, read-out: Activity Response κ Emax (%)
Protocol: as §1
Functional [^35S]GTPγS binding assays were conducted as follows. κ opioid receptor membrane solution was prepared by sequentially adding final concentrations of 0.026 μg/μl κ membrane protein (in-house), 10 μg/mL saponin, 3 μM GDP and 0.20 nM [^35S]GTPγS to binding buffer (100 mM NaCl, 10 mM MgCl2, 20 mM HEPES, pH 7.4) on ice. The prepared membrane solution (190 μl/well) was transferred to 96-shallow well polypropylene plates containing 10 μl of 20× concentrated stock solutions of agonist prepared in DMSO. Plates were incubated for 30 min at a temperature of about 25° C. with shaking. Reactions were terminated by rapid filtration onto 96-well Unifilter GF/B filter plates (Perkin Elmer, Shelton, Conn.) using a 96-well tissue harvester (Packard) and followed by three filtration washes with 200 μl ice-cold binding buffer (10 mM NaH2PO4, 10 mM Na2HPO4, pH 7.4). Filter plates were subsequently dried at 50° C. for 2-3 hours. Fifty μl/well scintillation cocktail (Perkin Elmer, Shelton, Conn.) was added and plates were counted in a Packard Top-Count for 1 min/well.
κ GTP EC50 is the concentration of a compound providing 50% of the maximal response for the compound at a κ receptor.
κ GTP Emax (%) is the maximal effect elicited by a compound relative to the effect elicited by U69,593.
as §2, with “In” for “The following tables provide results on the efficacy of binding and activity response of exemplified Compounds of the Invention at the μ- and κ-opioid receptors. In”

μ-opioid receptors [3] = target: T2, μ-opioid receptors (Homo sapiens (Human), UniProt P35372); experiment: μ-opioid receptor [35S]GTPγS functional assay, HEK-293 cells; assay type: biochemical; conditions: μ GTP; for EC50: read-out: Activity Response μ EC50 (nM) [mean ± SEM]; for Emax: relative to DAMGO, read-out: Activity Response μ Emax (%)
Protocol: [^35S]GTPγS functional assays were conducted using freshly thawed μ-receptor membranes prepared from a cell line expressing recombinant μ opioid receptor in a HEK-293, CHO or U-2 OS cell background or purchased from a commercial source (Perkin Elmer, Shelton, Conn.; or DiscovRx, Fremont, Calif.). Assay reactions were prepared by sequentially adding the following reagents to binding buffer (100 mM NaCl, 10 mM MgCl2, 20 mM HEPES, pH 7.4) on ice (final concentrations indicated): membrane protein (0.026 mg/mL), saponin ([…]), GDP ([…]) and [^35S]GTPγS (0.20 nM; Perkin Elmer, Shelton, Conn.). The prepared membrane solution (190 μl/well) was transferred to 96-shallow well polypropylene plates containing 10 μl of 20× concentrated stock solutions of the agonist [D-Ala^2, N-methyl-Phe^4 Gly-ol^5]-enkephalin (DAMGO) prepared in dimethyl sulfoxide (DMSO). Plates were incubated for 30 min at about 25° C. with shaking. Reactions were terminated by rapid filtration onto 96-well Unifilter GF/B filter plates (Perkin Elmer, Shelton, Conn.) using a 96-well tissue harvester (Perkin Elmer, Shelton, Conn.) followed by three filtration washes with 200 μl of ice-cold wash buffer (10 mM NaH2PO4, 10 mM Na2HPO4, pH 7.4). Filter plates were subsequently dried at 50° C. for 2-3 hours. BetaScint scintillation cocktail (Perkin Elmer, Shelton, Conn.) was added (50 μl/well) and plates were counted using a Packard Top-Count for 1 min/well. Data were analyzed using the sigmoidal dose-response curve fitting functions in GraphPad PRISM v. 3.0, or an in-house function for non-linear, sigmoidal dose-response curve-fitting.
μ GTP EC50 is the concentration of a compound providing 50% of the maximal response for the compound at a μ-opioid receptor.
μ GTP Emax (%) is the maximal effect elicited by a compound relative to the effect elicited by DAMGO, a standard μ agonist. Generally, the μ GTP Emax (%) value measures the efficacy of a compound to treat or prevent pain or other Conditions.
as §2

μ-opioid receptors [4] = target: T2, μ-opioid receptors; experiment: μ-opioid receptor radioligand dose-displacement binding assay ([3H]-diprenorphine); conditions: mean ± SEM, read-out: Binding Affinity Opioid Receptor Ki (nM) [mean ± SEM] μ
Protocol: Radioligand dose-displacement binding assays for μ-opioid receptors used 0.3 nM [^3H]-diprenorphine (Perkin Elmer, Shelton, Conn.), with […] membrane protein/well in a final volume of 500 μl binding buffer (10 mM MgCl2, 1 mM EDTA, 5% DMSO, 50 mM HEPES, pH 7.4). Reactions were carried out in the absence or presence of increasing concentrations of unlabeled naloxone. All reactions were conducted in 96-deep well polypropylene plates for 2 hours at room temperature. Binding reactions were terminated by rapid filtration onto 96-well Unifilter GF/C filter plates (Perkin Elmer, Shelton, Conn.), presoaked in 0.5% polyethylenimine using a 96-well tissue harvester (Perkin Elmer, Shelton, Conn.) followed by performing three filtration washes with 500 μl of ice-cold binding buffer. Filter plates were subsequently dried at 50° C. for 2-3 hours. BetaScint scintillation cocktail (Perkin Elmer, Shelton, Conn.) was added (50 μl/well), and plates were counted using a Packard Top-Count for 1 min/well. The data were analyzed using the one-site competition curve fitting functions in GraphPad PRISM™ v. 3.0 or higher (San Diego, Calif.), or an in-house function for one-site competition curve-fitting.
as §2

κ opioid receptor [5] = target: T1, κ opioid receptor; experiment: κ-opioid receptor [35S]GTPγS functional assay, U-2 OS cells; assay type: biochemical; conditions: κ GTP; for EC50: read-out: Activity Response κ EC50 (nM) [mean ± SEM]; for Emax: relative to U69,593, read-out: Activity Response κ Emax (%)
μ-opioid receptors [6] = target: T2, μ-opioid receptors; experiment: μ-opioid receptor [35S]GTPγS functional assay, U-2 OS cells; assay type: biochemical; conditions: μ GTP; for EC50: read-out: Activity Response μ EC50 (nM) [mean ± SEM]; for Emax: relative to DAMGO, read-out: Activity Response μ Emax (%)

Row | Compound | Ki [1] [nM] | EC50 (κ opioid receptor [2]) [nM] | Emax (κ opioid receptor [2]) [%] | EC50 (μ-opioid receptors [3]) [nM] | Emax (μ-opioid receptors [3]) [%] | Ki (μ-opioid receptors [4]) [nM] | EC50 (κ opioid receptor [5]) [nM] | Emax (κ opioid receptor [5]) [%] | EC50 (μ-opioid receptors [6]) [nM] | Emax (μ-opioid receptors [6]) [%]
1 | CCOC(=O)C[C@H]1C[C@@]2(O)[C@H]3Cc4ccc(OC)cc4[C@@]2(CCN3CC2CC2)CC1=O [Compound 1, ethyl 2-((4bR,7R,8aS,9R)-11-(cyclopropylmethyl)-8a-hydroxy-3-methoxy-6-oxo-6,7,8,8a,9,10-hexahydro-5H-9,4b-(epiminoethano)phenanthren-7-yl)acetate] | 408 ± 34.1 | 5110 ± 1260 | 72 ± 3.21 | 3400 ± 584 | 59.3 ± 3.38 |  |  |  |  | 
2 | COc1ccc2c(c1)[C@]13CCN(CC4CC4)[C@H](C2)[C@]1(O)C[C@H](CC(=O)O)C(=O)C3 [Compound 8, 2-((4bR,7R,8aS,9R)-11-(cyclopropylmethyl)-8a-hydroxy-3-methoxy-6-oxo-6,7,8,8a,9,10-hexahydro-5H-9,4b-(epiminoethano)phenanthren-7-yl)acetic acid] | 261 ± 97.3 | 4440 ± 679 | 66.7 ± 6.84 | 703 ± 72 | 59.7 ± 8.69 |  |  |  |  | 
3 | O=C(O)C[C@H]1C[C@@]2(O)[C@H]3Cc4ccc(O)cc4[C@@]2(CCN3CC2CC2)CC1=O [Compound 9, 2-((4bR,7R,8aS,9R)-11-(cyclopropylmethyl)-3,8a-dihydroxy-6-oxo-6,7,8,8a,9,10-hexahydro-5H-9,4b-(epiminoethano)phenanthren-7-yl)acetic acid] | 0.97 ± 0.19 | 17.3 ± 3.73 | 40.8 ± 1.93 | > 200000 | -1 | 6.18 ± 0.76 |  |  |  | 
4 | C[C@H](NC(=O)C[C@H]1C[C@@]2(O)[C@H]3Cc4ccc(O)cc4[C@@]2(CCN3CC2CC2)CC1=O)C(=O)O [Compound 15, (S)-2-(2-((4bR,7R,8aS,9R)-11-(cyclopropylmethyl)-3,8a-dihydroxy-6-oxo-6,7,8,8a,9,10-hexahydro-5H-9,4b-(epiminoethano)phenanthren-7-yl)acetamido)propanoic acid] | 191 ± 45.8 | 221 ± 59.4 | 36 ± 2 | 43.8 ± 14.7 | 36.2 ± 3.75 |  |  |  |  | 
5 | O=C1C[C@]23CCN(CC4CC4)[C@H](Cc4ccc(O)cc42)[C@]3(O)C[C@@H]1CC(=O)N1CCC[C@H]1C(=O)O [Compound 17, (S)-1-(2-((4bR,7R,8aS,9R)-11-(cyclopropylmethyl)-3,8a-dihydroxy-6-oxo-6,7,8,8a,9,10-hexahydro-5H-9,4b-(epiminoethano)phenanthren-7-yl)acetyl)pyrrolidine-2-carboxylic acid] | 128 ± 18.1 | > 200000 |  | > 200000 | 0 |  |  |  |  | 
6 | CC(C)C[C@H](NC(=O)C[C@H]1C[C@@]2(O)[C@H]3Cc4ccc(O)cc4[C@@]2(CCN3CC2CC2)CC1=O)C(=O)O [Compound 19, (S)-2-(2-((4bR,7R,8aS,9R)-11-(cyclopropylmethyl)-3,8a-dihydroxy-6-oxo-6,7,8,8a,9,10-hexahydro-5H-9,4b-(epiminoethano)phenanthren-7-yl)acetamido)-4-methylpentanoic acid] | 146 ± 29.7 | 201 ± 25.9 | 41.3 ± 2.85 | 49.7 ± 7.48 | 37.5 ± 3.93 |  |  |  |  | 
7 | COc1ccc2c(c1)[C@]13CCN(CC4CC4)[C@H](C2)[C@]1(O)C[C@H](CCO)C(=O)C3 [Compound 46, (4bR,7S,8aS,9R)-11-(cyclopropylmethyl)-8a-hydroxy-7-(2-hydroxyethyl)-3-methoxy-8,8a,9,10-tetrahydro-5H-9,4b-(epiminoethano)phenanthren-6(7H)-one] | 394 ± 85.2 |  |  |  |  | 591 ± 80.3 | 1020 ± 110 | 109 ± 4.84 | 409 ± 88.5 | 68.7 ± 4.1
8 | COc1ccc2c(c1)[C@]13CCN(CC4CC4)[C@H](C2)[C@]1(O)C[C@H](CCOCc1ccccc1)C(=O)C3 [Compound 48, (4bR,7S,8aS,9R)-7-(2-(benzyloxy)ethyl)-11-(cyclopropylmethyl)-8a-hydroxy-3-methoxy-8,8a,9,10-tetrahydro-5H-9,4b-(epiminoethano)phenanthren-6(7H)-one] | 65.3 ± 4.49 | 362 ± 36.6 | 70.3 ± 6.94 | 463 ± 32.6 | 139 ± 3.21 | 223 ± 32.5 | 225 ± 20.1 | 119 ± 4.91 | 38.6 ± 2.85 | 98 ± 2.65
9 | COCC[C@H]1C[C@@]2(O)[C@H]3Cc4ccc(OC)cc4[C@@]2(CCN3CC2CC2)CC1=O [Compound 49, (4bR,7S,8aS,9R)-11-(cyclopropylmethyl)-8a-hydroxy-3-methoxy-7-(2-methoxyethyl)-8,8a,9,10-tetrahydro-5H-9,4b-(epiminoethano)phenanthren-6(7H)-one] | 324 ± 48 |  |  |  |  | 1960 ± 638 | 1280 ± 160 | 108 ± 5.57 |  | 
